Data as given in patent US10149470B2, “Methods and compositions for vein harvest and autografting” (Vanderbilt University, priority 2009, dated 2018).
Blank lines part the entries; values can stand above or below the compound they belong to.

How the values were obtained:
Format in all cases: cell-based
human saphenous vein [1] = conditions: 15 min, pH 7.4
Procedure: De-identified discarded segments of human saphenous vein were collected (n=66), after informed consent approved by the Institutional Review Board of the Vanderbilt University (Nashville, Tenn.), from patients undergoing coronary artery bypass or peripheral vascular bypass surgery. The veins were stored in a saline solution until the end of the surgical procedure at which time they were placed in cold transplant harvest buffer (100 mM potassium lactobionate, 25 mM KH2PO4, 5 mM MgSO4, 30 mM raffinose, 5 mM adenosine, 3 mM glutathione, 1 mM allopurinol, 50 g/L hydroxyethyl starch, pH 7.4) and stored at 4° C. The vessels were tested within 24 hours of harvest. The presense of blue markings were assessed for each HSV. Rings 1.0 mm in width were cut from segments of saphenous vein dissected free of fat and connective tissue, stripped of the endothelium and were suspended in a muscle bath containing a bicarbonate buffer (120 mM NaCl, 4.7 mM KCl, 1.0 mM MgSO4, 1.0 mM NaH2PO4, 10 mM glucose, 1.5 mM CaCl2, and 25 mM […], pH 7.4), gassed with 95% O2/5% CO2 at 37° C. The rings were manually stretched to 4 g of tension, and was maintained at a resting tension of 1 g was obtained and equilibrated for ˜2 hr. […] To determine viability, the rings were contracted with 110 mM KCl (with equimolar replacement of NaCl in bicarbonate buffer), and the force generated was measured. […]

porcine saphenous veins = conditions: pig, 15 min, 50 %
Procedure: Freshly isolated porcine saphenous veins were used to test the effect of different marking methods. The veins were collected and placed in cold transplant harvest buffer [100 mM potassium lactobionate, 25 mM KH2PO4, 5 mM MgSO4, 30 mM raffinose, 5 mM adenosine, 3 mM glutathione, 1 mM allopurinol, 50 g/L hydroxyethyl starch, pH 7.4]. The vessels were stored in transplant harvest buffer at 4° C. and tested within 24 hours of harvest and. To test the viability, rings 1.0 mm in width were cut from segments of saphenous vein and dissected free of fat and connective tissue. Saphenous vein rings were untreated (Control; n=6), marked with the surgical skin marker (n=3), or 50% isopropyl alcohol (the solvent used in the surgical marker; n=3) and incubated for 15 min at room temperature. The rings were then equilibrated in a muscle bath, contracted with KCl, and force was measured and converted to stress (10^5 N/m^2). […] (FIG. 7).

human saphenous vein [2] = test: Papaverine effect on tension and on norepinephrine contraction of human saphenous vein rings
Procedure: De-identified discarded segments of human saphenous vein (n=6) were collected, after informed consent approved by the Institutional Review Board of the Vanderbilt University (Nashville, Tenn.), from patients undergoing coronary artery bypass or peripheral vascular bypass surgery. The veins were stored in a saline solution until the end of the surgical procedure at which time they were placed in cold transplant harvest buffer (100 mM potassium lactobionate, 25 mM KH2PO4, 5 mM MgSO4, 30 mM raffinose, 5 mM adenosine, 3 mM glutathione, 1 mM allopurinol, 50 g/L hydroxyethyl starch, pH 7.4). The vessels were tested within 24 hrs of harvest and storage in transplant harvest buffer at 4° C. Veins were cleaned off fat and adventitial tissues and the endothelium was removed. […] The rings were contracted with 110 mM KCl (with equimolar replacement of NaCl in bicarbonate buffer), and the force generated was measured and converted to stress [Newtons (N)/m^2]==force (g)×0.0987/area, where area is equal to the wet weight [mg/length (mm at maximal length)] divided by 1.055. […] Rings were treated with 0.5 μM norepinephrine (NE), 1 mM papaverine (Pap), or 1 mM papaverine for 10 min followed by 0.5 μM NE and force generated was measured and converted to stress. […]

porcine coronary artery = test: Papaverine effect on tension and on histamine/KCl contraction of porcine coronary artery rings
Procedure: Porcine coronary arteries were freshly isolated from euthanized pigs and placed directly into cold transplant harvest buffer (100 mM potassium lactobionate, 25 mM KH2PO4, 5 mM MgSO4, 30 mM Raffinose, 5 mM Adenosine, 3 mM Glutathione, 1 mM Allopurinol, 50 g/L Hydroxyethyl starch, pH 7.4). Coronary arteries were dissected free of fat and adventitial tissues and the endothelium was removed. Transverse rings (1.0 mm thickness) were cut and suspended in muscle bath, via silk 3-0 linked to force transducers (Kent Scientific, CT) interfaced with a Data Translation A-D board (Data Translation, MA). Data was acquired with the Power Lab software program. Porcine coronary artery rings were suspended in a muscle bath and equilibrated in Krebs Ringer bicarbonate buffer for 2 h. The rings were stretched and the length progressively adjusted until maximal tension was obtained. The rings were contracted with 110 mM KCl (with equimolar replacement of NaCl in bicarbonate buffer), and the force generated was measured and converted to stress [Newtons (N)/m^2]=force (g)×0.0987/area, where area is equal to the wet weight [mg/length (mm at maximal length)] divided by 1.055. Rings were washed and equilibrated for another 30 mins. Rings were treated with 5 μM histamine, 110 mM KCl, 1 mM papaverine (PAP), 1 mM papaverine for 10 min followed by 5 μM histamine or 1 mM papaverine for 10 min followed by 110 mM KCl and force generated was measured- and converted to stress. Representative force tracings of rings treated with 5 μM histamine (Hist), 110 mM KCl (KCl), 1 mM papaverine (PAP), 1 mM papaverine for 10 min followed by 5 μM histamine (Pap+Hist) or 1 mM papaverine for 10 min followed by 110 mM KCl (Pap+KCl) were depicted in FIG. 18A. Decrease in stress was converted to a percentage of the maximal initial KCl contraction which was set as 100%.

porcine saphenous vein [3] = test: Intimal thickening of distended porcine saphenous vein rings in 14 day organ culture; conditions: 50 μM dye, 14 days culture, distended to >300 mm Hg, compared to Distended-Control; FIG. 14
Procedure: Fresh porcine saphenous vein was harvested by a no touch method under sterile conditions and stored in cold transplant harvest buffer (100 mM potassium lactobionate, 25 mM KH2PO4, 5 mM MgSO4, 30 mM Raffinose, 5 mM Adenosine, 3 mM Glutathione, 1 mM Allopurinol, 50 g/L Hydroxyethyl starch, pH 7.4). The vessels were used within 24 hr of harvest. The veins were divided into three segments that were left untreated (Unmanipulated, n=7), distended (Distended, n=8) to >300 mm Hg, or distended in the presence of the pressure relief valve (Pop Off, n=7). Each segment was then cut into ˜1 mm rings and one ring from each condition was immediately fixed in formalin (Pre-culture). The other rings were cultured in RPMI medium supplemented with 1% L-glutamine, penicillin/streptomycin and 30% Fetal bovine serum at 5% CO2 and 37° C. in the absence (Control) or presence of either 50 μM erioglaucine (FCF), 50 μM brilliant blue G (BBG) or 50 μM Allura Red (Red) for 14 days. After 14 days, the rings were fixed in formalin, sectioned at 5 μm and stained using Verhoff Van Gieson stain. Light micrograph of the rings was captured using a Axiovert 200 and intimal thickness was measured using AxioVision.

porcine saphenous vein [4] = test: KCl-induced contraction of porcine saphenous vein after stretch injury, with or without dye; conditions: 50 μM dye for 30 min on rings from stretched segments; FIG. 10
Procedure: Freshly isolated porcine saphenous vein was collected in cold transplant harvest buffer (100 mM potassium lactobionate, 25 mM KH2PO4, 5 mM MgSO4, 30 mM raffinose, 5 mM adenosine, 3 mM glutathione, 1 mM allopurinol, 50 g/L hydroxyethyl starch, pH 7.4). The vessels were tested within 24 hours of harvest and storage in transplant harvest buffer at 4° C. The vein was dissected free of fat and connective tissue and cut into 2 cm long segments. The segments were stretched to twice their resting length (stretched; n=7) or not manipulated (control; n=12). After stretching, the segments from both groups were further divided. A solution of erioglaucine (FCF, 2.6 mM, in 5% propylene glycol and water) or vehicle was then applied with a cotton swab in a longitudinal line to the untreated (FCF; n=8) or the stretched (Stretched+FCF; n=3) vein segments. The segments were incubated at room temperature for 15 min in Plasmalyte and then cut into rings. The rings were suspended in a muscle bath containing a bicarbonate buffer (120 mM NaCl, 4.7 mM KCl, 1.0 mM MgSO4, 1.0 mM NaH2PO4, 10 mM glucose, 1.5 mM CaCl2, and 25 mM […], pH 7.4), bubbled with 95% O2/5% CO2 at 37° C. The rings were manually stretched to 4 g of tension, and maintained at a resting tension of 1 g and equilibrated for ˜2 hr.
Rings from stretched segments were either incubated with 50 μM Allura Red (+Red) or 50 μM of erioglaucine (+FCF) for 30 min. The rings were then allowed to equilibrate in the bicarbonate buffer for before contracting with 110 mM KCl. Force generated was converted to stress (10^5 N/m^2). Data represent relative contractile response to Control rings which was set as 100%.

- average stress, contraction with 110 mM KCl (human saphenous vein [1]): 0.005±0.003 10^5 N/m^2
- average stress, contraction with KCl (porcine saphenous veins): 5 ± 5 N/m^2
SMILES: CC(C)O [50% isopropyl alcohol, isopropyl alcohol]

SMILES: COc1ccc(Cc2nccc3cc(OC)c(OC)cc23)cc1OC [papaverine]
- norepinephrine induced contraction after papaverine, percentage of the maximal initial KCl contraction (human saphenous vein [2]; 1 mM papaverine 10 min then 0.5 μM NE, NE alone 89.935±18.344): −3.210±5.119%
- norepinephrine induced contractions (in words) (human saphenous vein [2]; preincubation with papaverine, FIGS. 19A-B): inhibits norepinephrine induced contractions
- change of basal tension, percentage of the maximal initial KCl contraction (porcine coronary artery; 1 mM papaverine): −15.0±3.135%
- histamine induced contraction after papaverine, percentage of the maximal initial KCl contraction (porcine coronary artery; 1 mM papaverine 10 min then 5 μM histamine, histamine alone 98.613±11.049): −12.0±4.163%
- KCl induced contraction after papaverine, percentage of the maximal initial KCl contraction (porcine coronary artery; 1 mM papaverine 10 min then 110 mM KCl, KCl alone 103.33±2.404): −20.0±10.00%
- histamine and KCl induced contractions (in words) (porcine coronary artery; preincubation with papaverine, FIGS. 18A-B): inhibits histamine and KCl induced contractions

- average stress, contraction with 110 mM KCl (human saphenous vein [1]): 0.014±0.01 10^5 N/m^2
SMILES: CN(C)c1ccc2nc3ccc(=[N+](C)C)cc-3sc2c1 [methylene blue]

SMILES: COc1cc(S(=O)(=O)[O-])c(C)cc1N=Nc1c(O)ccc2cc(S(=O)(=O)[O-])ccc12.[Na+].[Na+] [Allura Red]
- distension induced increases in intimal thickening (porcine saphenous vein [3]): but not allura red inhibited distension induced increases in intimal thickening
- restoration of functional viability (contractile response to KCl) after stretch injury (porcine saphenous vein [4]): did not restore functional viability
